Experimental findings from ChEMBL document CHEMBL1154198, “Chemical genetics of Plasmodium falciparum” (Nature, 2010) are described below.

For assay [1], the system named is Plasmodium falciparum. Nature of the assay: ST_JUDE: Plasmodium falciparum K1 EC50 (uM) as measured by SYBR green dye. The format is functional, organism-based.
Assay [2] concerns Plasmodium falciparum. The experiment in a line: ST_JUDE: Plasmodium falciparum 3D7 EC50 (uM) as measured by SYBR green dye. The format is functional, organism-based.

Regarding `O=C(c1cccc(F)c1)N(Cc1cccnc1)c1nc2ccc(F)cc2s1`, the concentration giving a half-maximal response (EC50) in assay [1] was 4.23 µM; in assay [2], > 15 µM.
`Cc1ccc(S(=O)(=O)N(CC(=O)N2CCCCCC2)Cc2ccc(Cl)cc2)cc1`: the EC50 in assay [1] and in assay [2] was > 15 µM each time.
In the case of `Oc1ccc(I)cc1/C=C/c1cc(O)c2ccccc2n1`, the EC50 in assay [1] was 5.34 µM; in assay [2], > 15 µM.
For `Cc1cccc(CN2C(=O)/C(=C\c3ccc(C(=O)NC4CCCC4)cc3)Sc3ccccc32)c1`, in that order: 4.69 µM and 3.99 µM.
For `CCCCn1nnnc1NCc1cc(Cl)c(OC)c(OC)c1`, in that order: > 15 µM and 5.86 µM.
With `C=CCOc1cccc(C(Nc2cc(C)ccn2)c2ccc3cccnc3c2O)c1` (configuration not stated), the EC50 in assay [1] is 4.09 µM; in assay [2] it was 3.17 µM.
Consider `CCOc1cc(CN(C)Cc2nnc(SCc3ccccc3C)n2CC2CCCO2)ccc1OC` (configuration not stated), for which the EC50 in assay [1] was 2.42 µM; in assay [2] it was 2.29 µM.
Turning to `COc1ccc2ncc(C(=O)c3ccccc3)c(N3CCN(C)CC3)c2c1`, the EC50 in assay [1] and in assay [2] was > 15 µM each time.
Regarding `O=C(O)/C=C1\SC(=O)NC1=O`, the EC50 in assay [1] and in assay [2] was > 15 µM throughout.
Turning to `CCOc1ccc(Nc2nc(N)c3ccccc3n2)cc1`, the results for the EC50 in assay [1] and in assay [2] were > 15 µM and 3.23 µM, respectively.
On to `Cc1ccc(CN2c3ccccc3C(O)=C(/C=N/c3ccc4c(c3)N3CCN=C3S4)S2(=O)=O)cc1`, for which the values for the EC50 in assay [1] and in assay [2] were > 15 µM and 2.18 µM, respectively.
Turning to `COc1ccc(C2C(C#N)=C(N)Oc3c2ccc2ccccc32)cc1OC` (configuration not stated), the EC50 came out at 8.61 µM in assay [1] and 1.45 µM in assay [2].
Take `CCS(=O)(=O)c1ccccc1C(=O)Nc1nc(-c2ccccn2)cs1`: the EC50 in assay [1] worked out at 5.14 µM; in assay [2], 6.53 µM.
For `Cc1ccccc1OCC(O)Cn1c(=N)n(CCN2CCCCC2)c2ccccc21` (configuration not stated), in that order: 5.4 µM and 4.76 µM.
For the molecule `Oc1c(C(c2ccc(Cl)cc2)N2CCOCC2)ccc2cccnc12` (configuration not stated), the concentration giving a half-maximal response (EC50) in assay [1] was determined as 2.97 µM; in assay [2], 2.19 µM.
Take `COc1ccc(NC(=O)CSc2nc(-c3ccccc3Cl)ns2)c(OC)c1`: the EC50 in assay [1] came to 4.59 µM; in assay [2], 5.43 µM.
For `CN1CCN(c2nc(Nc3ccc(F)cc3)c3cnn(-c4ccccc4)c3n2)CC1`, in that order: 4.27 µM and 1.49 µM.
For `O=C(Nc1ccc([N+](=O)[O-])cc1)Nc1cc(Cl)cc(Cl)c1`, in that order: > 15 µM and > 15 µM.
For `CCCCOc1ccc(N2C(N)=NC(N)=NC2(C)C)cc1`, in that order: > 15 µM and 2.79 µM.
Regarding `CC(=O)N(C1=C(N(C)C)C(=O)c2ccccc2C1=O)c1ccc(C(=O)O)cc1`, the EC50 turned out to be 1.9 µM in assay [1] and 1.3 µM in assay [2].
For `CCc1cccc(NC(=O)C2c3ccccc3C(=O)N(CCOC)C2c2cccs2)c1` (configuration not stated), the EC50 in assay [1] worked out at 4.14 µM; in assay [2] it was 3.81 µM.
Regarding `C[n+]1ccccc1/C=C1\Sc2ccccc2N1CCO`, the EC50 was found to be 3.1 µM in assay [1] and 5.49 µM in assay [2].
On to `CCc1cc2c(=O)c(Oc3ccccc3)c(C(F)(F)F)oc2cc1O`, for which the EC50 in assay [1] and in assay [2] was > 15 µM in each case.
Consider `Cc1cc(C)c2ccc(N)nc2c1O`, for which the figures for the EC50 in assay [1] and in assay [2] were 4.81 µM and 3.86 µM, respectively.
Take `Cc1cc(N(C)C)nc(Nc2ccc(NS(=O)(=O)c3cc(C(C)C)ccc3C)cc2)n1`: the results for the EC50 in assay [1] and in assay [2] were 3.35 µM and 1.55 µM, respectively.
As to `CN(Cc1cccc(OCCNC(=O)c2ccc3c(c2)OCO3)c1)Cc1cccc2cccnc12`, the EC50 in assay [1] and in assay [2] was > 15 µM throughout.
`CCC1(C)CC(CCN)(c2ccc(C)cc2)CCO1` (configuration not stated): the values for the EC50 in assay [1] and in assay [2] were > 15 µM and 4.8 µM, respectively.
On to `CCc1nnc(NC(=O)CCCOc2ccc(Cl)cc2)s1`, for which the concentration for a half-maximal effect (EC50) in assay [1] and in assay [2] was > 15 µM in each case.
For the molecule `O=C1CC(C(=O)N2CCC(c3nc(-c4cccnc4)ncc3-c3ccccc3)CC2)c2ccccc21` (configuration not stated), the EC50 in assay [1] was found to be 4.09 µM; in assay [2], 2.73 µM.
As to `Cc1ccc(-c2nc(C(=O)N(C)Cc3cccnc3)cs2)cc1F`, the concentration giving a half-maximal response (EC50) in assay [1] came to 5.12 µM; in assay [2] it was 4.36 µM.
For `CCCCCOc1ccc(NC2=C(N3CCCCC3)C(=O)c3ccccc3C2=O)cc1`, in that order: 0.057 µM and 0.0689 µM.
In the case of `CCOC(=O)C(NC(=O)CC)(Nc1ccc(S(=O)(=O)Nc2cc(C)on2)cc1)C(F)(F)F` (configuration not stated), the concentration for a half-maximal effect (EC50) is 8.98 µM in assay [1] and 4.49 µM in assay [2].
In the case of `CO/C(O)=C1\C(C)=NC2=C(C(=O)CC(c3ccccc3Cl)C2)C1c1ccc(OC)c(OC)c1` (configuration not stated), the EC50 in assay [1] was 9.39 µM; in assay [2] it was > 15 µM.
For `C[n+]1ccc(C=Cc2ccc(O)cc2)cc1`, in that order: 4.01 µM and 3.97 µM.
As for `Cc1cc(Br)ccc1OCCCCn1ccnc1`, the EC50 in assay [1] and in assay [2] was > 15 µM in each case.
`Cc1ccc(NC2=NC(=O)CC(C(=O)Nc3ccc(C(C)C)cc3)S2)cc1C` (configuration not stated): the EC50 in assay [1] and in assay [2] was > 15 µM in each case.
As for `COc1cc(Br)c(C2C(C#N)=C(N)Oc3cc(O)ccc32)cc1OC` (configuration not stated), the EC50 was 5.8 µM in assay [1] and > 15 µM in assay [2].
Consider `Oc1c(C(Nc2ccccn2)c2ccc(Cl)c(Cl)c2)ccc2cccnc12` (configuration not stated), for which the half-maximal effective concentration (EC50) in assay [1] is 4.36 µM; in assay [2], 1.34 µM.
For `O=C(Nc1ccccc1O)c1ccc(-c2ccc(Cl)cc2Cl)o1`, in that order: > 15 µM and 2.46 µM.
With `Cc1cccc(NC(c2ccc(F)cc2)c2ccc3cccnc3c2O)n1` (configuration not stated), the 50% effective concentration (EC50) was determined as 4.17 µM in assay [1] and 1.51 µM in assay [2].
With `COc1ccc(-c2nn(C)c3sc(C(=O)Nc4cccc(Cl)c4)cc23)cc1OC`, the EC50 in assay [1] is 6.94 µM; in assay [2], > 15 µM.
Consider `N#Cc1ccc(C(=O)N(Cc2cccnc2)c2nc3c(F)cccc3s2)cc1`, for which the EC50 in assay [1] and in assay [2] was > 15 µM in each case.
Consider `COc1ccc(CN2CCN(Cc3cc(Br)ccc3O)CC2)cc1OC`, for which the EC50 in assay [1] came to 6.31 µM; in assay [2], 4.91 µM.
For `Cc1c(C(=O)NCCCn2ccnc2)sc2nc(-c3cccc([N+](=O)[O-])c3)cn12`, in that order: 9.22 µM and > 15 µM.
In the case of `COc1ccc(NC(=O)COc2c(C)cc(Br)cc2C)c(OC)c1`, the results for the concentration for a half-maximal effect (EC50) in assay [1] and in assay [2] were 5.44 µM and > 15 µM, respectively.
Regarding `CCN(CC)C(=O)c1sc(NC(=O)CCc2ccccc2)c(C(=O)OC(C)C)c1C`, the EC50 in assay [1] and in assay [2] was > 15 µM throughout.
Turning to `CCOc1ccc(S(=O)(=O)NC2=C/C(=N\c3ccc(O)cc3)C(=O)c3ccccc32)cc1`, the 50% effective concentration (EC50) came out at 1.03 µM in assay [1] and 1.25 µM in assay [2].
Regarding `COc1ccc(C2C3=C(O)CC(c4ccccc4)CC3=NC(C)=C2C(=O)OCC(C)C)cc1OC` (configuration not stated), the EC50 in assay [1] was 3.92 µM; in assay [2], > 15 µM.
On to `COc1ccc(Nc2cc(C)nc(Nc3ccc(NS(=O)(=O)c4ccc(Cl)cc4)cc3)n2)cc1`, for which the EC50 was > 15 µM in assay [1] and 0.564 µM in assay [2].
For `CN(C)CCNc1nc(Cc2ccccc2)nc2sc3c(c12)CCCC3`, in that order: > 15 µM and > 15 µM.
Turning to `CC(=O)N(C1=C(N2CCOCC2)C(=O)c2ccccc2C1=O)c1ccc(C(=O)O)cc1`, the EC50 was 2.64 µM in assay [1] and > 15 µM in assay [2].
For `CCc1cccc2c(C#N)cn(CCOc3ccccc3F)c12`, in that order: 0.973 µM and 1.26 µM.
As for `Cc1ccc(OCC(=O)Nc2cc(C)nn2-c2nc(C)cc(O)n2)cc1`, the half-maximal effective concentration (EC50) in assay [1] and in assay [2] was > 15 µM throughout.
For the molecule `CCOc1cc(/C=C/c2ccc3cccc(O)c3n2)ccc1O`, the EC50 in assay [1] and in assay [2] was > 15 µM in each case.
Regarding `CCCCc1ccc(NS(=O)(=O)c2cc3c4c(c2)CCN4C(=O)CC3)cc1`, the EC50 in assay [1] and in assay [2] was > 15 µM in each case.
With `Cc1cccc(NC(=O)Nc2ccc(S(=O)(=O)C(F)(F)F)cc2)c1C`, the EC50 was 1.22 µM in assay [1] and 1.32 µM in assay [2].
On to `CCOc1cccc(C(=O)Nc2nonc2-c2ccc(OCC)c(OCC)c2)c1`, for which the EC50 came out at 0.217 µM in assay [1] and 0.169 µM in assay [2].
As for `COc1ccc2nc(N(Cc3cccnc3)C(=O)c3cccc(Cl)c3)sc2c1`, the EC50 in assay [1] and in assay [2] was > 15 µM in each case.
Regarding `CCCN1CCN(CCCNC(=O)c2ccc3c(c2)sc2nc(-c4ccc(C)cc4)cn23)CC1`, the figures for the EC50 in assay [1] and in assay [2] were 4.65 µM and 2.02 µM, respectively.
For `CCCCCn1c(=N)n(CC(O)COc2cccc(C)c2)c2ccccc21` (configuration not stated), in that order: 1.36 µM and 2.65 µM.
For the molecule `CCOC(=O)C1=C(c2ccc(F)cc2)C(=O)c2ccccc2C1=O`, the EC50 in assay [1] was found to be 1.71 µM; in assay [2], 2.28 µM.
In the case of `CCOc1ccccc1NC(=S)N1CCN(c2ccc(OC)cc2)C(C)C1` (configuration not stated), the EC50 is 4.26 µM in assay [1] and 2.85 µM in assay [2].
For `CCOc1ccccc1NC(=O)C(C)Oc1cccc(Br)c1` (configuration not stated), the EC50 in assay [1] and in assay [2] was > 15 µM in each case.
As to `COc1cccc(-c2nc3cc(NC(=O)c4cccc(Cl)c4Cl)ccc3o2)c1`, the EC50 in assay [1] and in assay [2] was > 15 µM throughout.
Consider `COc1ccccc1/C=C/CN1CCC(C(Cc2ccccc2)N(C)C(=O)c2cc(C)nn2C)CC1` (configuration not stated), for which the EC50 in assay [1] and in assay [2] was > 15 µM each time.
As for `CCCN(CCC)CCCNC(=O)c1cc2c(-c3ccc(OC)c(OC)c3)nn(C)c2s1`, the EC50 in assay [1] was > 15 µM; in assay [2], 4.04 µM.
In the case of `COC(=O)c1ccc(NC(=O)CN(Cc2ccc(Cl)cc2)S(=O)(=O)c2ccccc2)cc1`, the results for the EC50 in assay [1] and in assay [2] were 5.1 µM and 7.32 µM, respectively.
In the case of `COC(CNC(=O)c1ccc(-n2c(C)cc3c2CCCC3)cc1)OC`, the EC50 in assay [1] and in assay [2] was > 15 µM in each case.
Regarding `CC(=O)N(C1=C(NCCO)C(=O)c2ccccc2C1=O)c1cccc(Br)c1`, the concentration giving a half-maximal response (EC50) amounted to 0.0286 µM in assay [1] and 0.0171 µM in assay [2].
For `Cc1c(N)cc[n+](CC(=O)c2ccccc2)c1C`, in that order: 5.97 µM and > 15 µM.
For `CC(C)(C)C1CCc2onc(C(=O)Nc3cc(Br)ccc3O)c2C1` (configuration not stated), in that order: 0.419 µM and 0.726 µM.

In general, EC50 refers to the midpoint of the concentration-response curve. A higher EC50 goes with a need for much substance.
